US9067977B2, “Peptides derivatized with A-B-C-D- and their therapeutical use” (Novo Nordisk A/S, priority 2007, dated 2015)
Starred links: 1 amine or outer side, 2 acyl side, 3 side chain; linkers in the order of their positions; H or OH if unused. Non-standard residues stand in square brackets, D forms with d. Residues, ends and D or L forms follow the SMILES beside them. Groups on a side chain read outwards from the residue. *: point of attachment. X1 = O=C(CCCCCCCCCCCCCCCc1nnn[nH]1)NS(=O)(=O)CCCC(=O)*; C18 diacid = O=C(O)CCCCCCCCCCCCCCCCC(=O)*; d(βAsp) = O=C(O)[C@@H](CC(=O)[*:2])N[*:1]; γGlu = O=C(O)[C@H](CCC(=O)[*:2])N[*:1]; 2Nal = N[C@@H](Cc1ccc2ccccc2c1)C(=O)O; Desaminohistidyl = O=C(CCc1c[nH]cn1)*; 12Ado = NCCCCCCCCCCCC(=O)O; AEEA = NCCOCCOCC(=O)O; Aib = CC(C)(N)C(=O)O; Inp = O=C(O)C1CCNCC1

Each compound was assayed against human serum albumin (HSA) (Homo sapiens, UniProt P02768) (assay: Albumin binding affinity, competition scintillation proximity assay).
human serum albumin (HSA), sequence (P02768 25-609): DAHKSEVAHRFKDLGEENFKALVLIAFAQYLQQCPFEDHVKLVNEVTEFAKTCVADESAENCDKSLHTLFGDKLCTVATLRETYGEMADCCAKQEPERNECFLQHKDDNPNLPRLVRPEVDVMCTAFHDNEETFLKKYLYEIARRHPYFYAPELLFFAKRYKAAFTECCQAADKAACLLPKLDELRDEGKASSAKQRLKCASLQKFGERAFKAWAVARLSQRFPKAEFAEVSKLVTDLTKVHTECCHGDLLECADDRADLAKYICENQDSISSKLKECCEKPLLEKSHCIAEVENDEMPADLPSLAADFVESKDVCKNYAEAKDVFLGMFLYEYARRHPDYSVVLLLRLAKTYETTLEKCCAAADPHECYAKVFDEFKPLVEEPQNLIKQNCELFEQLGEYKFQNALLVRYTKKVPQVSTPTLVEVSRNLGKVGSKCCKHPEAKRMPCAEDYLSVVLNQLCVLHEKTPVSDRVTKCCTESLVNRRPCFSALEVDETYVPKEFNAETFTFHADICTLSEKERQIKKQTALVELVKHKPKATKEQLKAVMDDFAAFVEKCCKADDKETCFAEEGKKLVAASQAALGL
Description: Streptavidin-SPA beads (GE Healthcare RPNQ0009) were incubated with biotinylated HSA for 5 hours. The beads were washed with buffer to remove unbound HSA. […] After 20 hours of gentle rocking at room temperature the plates were centrifuged and counted on a TopCounter.

Compared with `CC[C@H](C)[C@H](NC(=O)[C@H](Cc1ccccc1)NC(=O)[C@H](CCC(=O)O)NC(=O)[C@H](CCCNC(=N)N)NC(=O)[C@H](C)NC(=O)[C@H](C)NC(=O)[C@H](CCC(N)=O)NC(=O)CNC(=O)[C@H](CCC(=O)O)NC(=O)[C@H](CCCCNC(=O)COCCOCCNC(=O)COCCOCCNC(=O)C[C@@H](NC(=O)C1CCN(C(=O)CCCCCCCCCCCCCCCCC(=O)O)CC1)C(=O)O)NC(=O)[C@H](Cc1ccc(O)cc1)NC(=O)[C@H](CO)NC(=O)[C@H](CO)NC(=O)[C@@H](NC(=O)[C@H](CC(=O)O)NC(=O)[C@H](CO)NC(=O)[C@@H](NC(=O)[C@H](Cc1ccc2ccccc2c1)NC(=O)[C@@H](NC(=O)CNC(=O)[C@H](CCC(=O)O)NC(=O)C(C)(C)NC(=O)[C@@H](N)Cc1c[nH]cn1)[C@@H](C)O)[C@@H](C)O)C(C)C)C(=O)N[C@@H](CCC(=O)O)C(=O)N[C@@H](Cc1c[nH]c2ccccc12)C(=O)N[C@@H](CC(C)C)C(=O)N[C@H](C(=O)N[C@@H](CCCCN)C(=O)NCC(=O)N[C@@H](CCCNC(=N)N)C(=O)NCC(N)=O)C(C)C` [Example 13, N-ε^20({2-[2-(2-{2-[2-((R)-3-carboxy-3-{[1-(17-carboxyheptadecanoyl)piperidine-4-carbonyl]amino}propionylamino)ethoxy]ethoxy}acetylamino)ethoxy]ethoxy}acetyl) [Aib^8,Lys^20,Arg^26,2-Naphtylalanine^12, Glu^30]GLP-1-(7-37)amide] (H-H[Aib]EGT[2Nal]TSDVSSYK([AEEA-AEEA-d(βAsp)-Inp-C18 diacid])EGQAAREFIEWLVKGRG-NH2; N-terminus assumed), `CC[C@H](C)[C@H](NC(=O)[C@H](Cc1ccc2ccccc2c1)NC(=O)[C@H](CCC(=O)O)NC(=O)[C@H](CCCNC(=N)N)NC(=O)[C@H](C)NC(=O)[C@H](C)NC(=O)[C@H](CCC(N)=O)NC(=O)CNC(=O)[C@H](CCC(=O)O)NC(=O)[C@H](CCCCNC(=O)COCCOCCNC(=O)COCCOCCNC(=O)C[C@@H](NC(=O)C1CCN(C(=O)CCCCCCCCCCCCCCCCC(=O)O)CC1)C(=O)O)NC(=O)[C@H](Cc1ccc(O)cc1)NC(=O)[C@H](CO)NC(=O)[C@H](CO)NC(=O)[C@@H](NC(=O)[C@H](CC(=O)O)NC(=O)[C@H](CO)NC(=O)[C@@H](NC(=O)[C@H](Cc1ccccc1)NC(=O)[C@@H](NC(=O)CNC(=O)[C@H](CCC(=O)O)NC(=O)C(C)(C)NC(=O)[C@@H](N)Cc1c[nH]cn1)[C@@H](C)O)[C@@H](C)O)C(C)C)C(=O)N[C@@H](CCC(=O)O)C(=O)N[C@@H](Cc1c[nH]c2ccccc12)C(=O)N[C@@H](CC(C)C)C(=O)N[C@H](C(=O)N[C@@H](CCCCN)C(=O)NCC(=O)N[C@@H](CCCNC(=N)N)C(=O)NCC(N)=O)C(C)C` [Example 11, N-ε^20({2-[2-(2-{2-[2-((R)-3-carboxy-3-{[1-(17-carboxyheptadecanoyl)piperidine-4-carbonyl]amino}propionylamino)ethoxy]ethoxy}acetylamino)ethoxy]ethoxy}acetyl) [Aib^8,Lys^20,Arg^26,2-Naphtylalanine^28, Glu^30]GLP-1 (7-37)amide] (H-H[Aib]EGTFTSDVSSYK([AEEA-AEEA-d(βAsp)-Inp-C18 diacid])EGQAARE[2Nal]IEWLVKGRG-NH2; N-terminus assumed) is higher in EC50: 0.15 to 0.3 µM for the first, 0.8 to 2 µM for the second. The first is the more potent here.

Compared with `CC[C@H](C)[C@H](NC(=O)[C@H](Cc1ccccc1)NC(=O)[C@H](CCC(=O)O)NC(=O)[C@H](CCCCNC(=O)COCCOCCNC(=O)COCCOCCNC(=O)COCCOCCNC(=O)COCCOCCNC(=O)COCCOCCNC(=O)COCCOCCNC(=O)CC[C@H](NC(=O)CC[C@H](NC(=O)CCCCCCCCCCCNC(=O)CCCS(=O)(=O)NC(=O)CCCCCCCCCCCCCCCc1nnn[nH]1)C(=O)O)C(=O)O)NC(=O)[C@H](C)NC(=O)[C@H](C)NC(=O)[C@H](CCC(N)=O)NC(=O)CNC(=O)[C@H](CCC(=O)O)NC(=O)[C@H](CC(C)C)NC(=O)[C@H](Cc1ccc(O)cc1)NC(=O)[C@H](CO)NC(=O)[C@H](CO)NC(=O)[C@@H](NC(=O)[C@H](CC(=O)O)NC(=O)[C@H](CO)NC(=O)[C@@H](NC(=O)[C@H](Cc1ccccc1)NC(=O)[C@@H](NC(=O)CNC(=O)[C@H](CCC(=O)O)NC(=O)C(C)(C)NC(=O)[C@@H](N)Cc1c[nH]cn1)[C@@H](C)O)[C@@H](C)O)C(C)C)C(=O)N[C@@H](C)C(=O)N[C@@H](Cc1c[nH]c2ccccc12)C(=O)N[C@@H](CC(C)C)C(=O)N[C@H](C(=O)N[C@@H](CCCNC(=N)N)C(=O)NCC(=O)N[C@@H](CCCNC(=N)N)C(N)=O)C(C)C` [Example 45, N-epsilon26-[2-(2-{2-[2-(2-{2-[2-(2-{2-[2-(2-{2-[2-(2-{2-[2-(2-{2-[(S)-4-Carboxy-4-((S)-4-carboxy-4-{12-[4-(16-(1H-tetrazol-5-yl)hexadecanoylsulfamoyl)butyrylamino]dodecanoylamino}butyrylamino)butyrylamino]ethoxy}ethoxy)acetylamino]ethoxy}ethoxy)acetylamino]ethoxy}ethoxy)acetylamino]ethoxy}ethoxy)acetylamino]ethoxy}ethoxy)acetylamino]ethoxy}ethoxy)acetyl][Aib8,Lys26,Arg34]GLP-1-(7-36)amide], `CC[C@H](C)[C@H](NC(=O)[C@H](Cc1ccccc1)NC(=O)[C@H](CCC(=O)O)NC(=O)[C@H](CCCNC(=N)N)NC(=O)[C@H](C)NC(=O)[C@H](C)NC(=O)[C@H](CCC(N)=O)NC(=O)[C@H](CCC(=O)O)NC(=O)[C@H](CCC(=O)O)NC(=O)[C@H](CC(C)C)NC(=O)[C@H](Cc1ccc(O)cc1)NC(=O)[C@H](CO)NC(=O)[C@H](CO)NC(=O)[C@@H](NC(=O)[C@H](CC(=O)O)NC(=O)[C@H](CO)NC(=O)[C@@H](NC(=O)[C@H](Cc1ccccc1)NC(=O)[C@@H](NC(=O)CNC(=O)[C@H](CCC(=O)O)NC(=O)[C@H](C)NC(=O)CCc1c[nH]cn1)[C@@H](C)O)[C@@H](C)O)C(C)C)C(=O)N[C@@H](C)C(=O)N[C@@H](Cc1c[nH]c2ccccc12)C(=O)N[C@@H](CC(C)C)C(=O)N[C@H](C(=O)N[C@@H](CCCNC(=N)N)C(=O)NCC(=O)N[C@@H](CCCNC(=N)N)C(=O)NCC(=O)N[C@@H](CCCCNC(=O)COCCOCCNC(=O)CC[C@H](NC(=O)CC[C@H](NC(=O)CCCCCCCCCCCNC(=O)CCCS(=O)(=O)NC(=O)CCCCCCCCCCCCCCCc1nnn[nH]1)C(=O)O)C(=O)O)C(N)=O)C(C)C` [Example 67, [ImPr^7,Arg^26,34,Glu^22]GLP-1-(7-37)Lys[2-(2-[2-((S)-4-((S)-4-(12-[4-(16-1H-tetrazol-5-ylhexadecanoylsulfamoyl)butyrylamino]dodecanoylamino)-4-carboxybutyrylamino)-4-carboxybutyrylamino)ethoxy]ethoxy)acetyl]-amid] (Desaminohistidyl-AEGTFTSDVSSYLEEQAAREFIAWLVRGRGK([AEEA-γGlu-γGlu-12Ado-X1])-NH2) is lower in EC50: 0.1 to 0.15 µM for the first, 0.001 to 0.1 µM for the second. The second is the more potent here.

`CC[C@H](C)[C@H](NC(=O)[C@H](Cc1ccccc1)NC(=O)[C@H](CCC(=O)O)NC(=O)[C@H](CCCNC(=N)N)NC(=O)[C@H](C)NC(=O)[C@H](C)NC(=O)[C@H](CCCCNC(=O)COCCOCCNC(=O)COCCOCCNC(=O)C[C@@H](NC(=O)C1CCN(C(=O)CCCCCCCCCCCCCCCCC(=O)O)CC1)C(=O)O)NC(=O)CNC(=O)[C@H](CCC(=O)O)NC(=O)[C@H](CC(C)C)NC(=O)[C@H](Cc1ccc(O)cc1)NC(=O)[C@H](CO)NC(=O)[C@H](CO)NC(=O)[C@@H](NC(=O)[C@H](CC(=O)O)NC(=O)[C@H](CO)NC(=O)[C@@H](NC(=O)[C@H](Cc1ccccc1)NC(=O)[C@@H](NC(=O)CNC(=O)[C@H](CCC(=O)O)NC(=O)C(C)(C)NC(=O)[C@@H](N)Cc1c[nH]cn1)[C@@H](C)O)[C@@H](C)O)C(C)C)C(=O)N[C@@H](C)C(=O)N[C@@H](Cc1c[nH]c2ccccc12)C(=O)N[C@@H](CC(C)C)C(=O)N[C@H](C(=O)N[C@@H](CCCNC(=N)N)C(=O)NCC(=O)N[C@@H](CCCNC(=N)N)C(=O)NCC(=O)O)C(C)C` [Example 5] (H-H[Aib]EGTFTSDVSSYLEGK([AEEA-AEEA-d(βAsp)-Inp-C18 diacid])AAREFIAWLVRGRG-OH) and `CC[C@H](C)[C@H](NC(=O)[C@H](Cc1ccccc1)NC(=O)[C@H](CCC(=O)O)NC(=O)[C@H](CCCNC(=N)N)NC(=O)[C@H](C)NC(=O)[C@H](C)NC(=O)[C@H](CCC(N)=O)NC(=O)[C@H](CCC(=O)O)NC(=O)[C@H](CCC(=O)O)NC(=O)[C@H](CC(C)C)NC(=O)[C@H](Cc1ccc(O)cc1)NC(=O)[C@H](CO)NC(=O)[C@H](CO)NC(=O)[C@@H](NC(=O)[C@H](CC(=O)O)NC(=O)[C@H](CO)NC(=O)[C@@H](NC(=O)[C@H](Cc1ccccc1)NC(=O)[C@@H](NC(=O)CNC(=O)[C@H](CCC(=O)O)NC(=O)C(C)(C)NC(=O)[C@@H](N)Cc1c[nH]cn1)[C@@H](C)O)[C@@H](C)O)C(C)C)C(=O)N[C@@H](C)C(=O)N[C@@H](Cc1c[nH]c2ccccc12)C(=O)N[C@@H](CC(C)C)C(=O)N[C@H](C(=O)N[C@@H](CCCNC(=N)N)C(=O)NCC(=O)N[C@@H](CCCNC(=N)N)C(=O)N[C@@H](CCCCNC(=O)COCCOCCNC(=O)COCCOCCNC(=O)C[C@H](NC(=O)C1CCN(C(=O)CCCCCCCCCCCCCCCCCCC(=O)O)CC1)C(=O)O)C(N)=O)C(C)C` [Example 4, N-epsilon37{2-[2-(2-{2-[2-((S)-3-carboxy-3-{[1-(19-carboxynonadecanoyl)piperidine-4-carbonyl]amino}propionylamino)ethoxy]ethoxy}acetylamino)ethoxy]ethoxy}acetyl [Aib8,Glu22,Arg26,Arg34,Lys37]GLP-1-(7-37)amide] fall in the same range of EC50: 0.3 to 0.8 µM for the first, 0.3 to 0.8 µM for the second.
